Our source for the ID50 values is ChEMBL document CHEMBL1126918, “Analysis of two cycloplatinated compounds derived from N-(4-methoxyphenyl)-alpha-benzoylbenzylidenamine. Comparison of the activity of these compounds with other isostructural cyclopalladated compounds” (J Med Chem, 1993).

One test relates to MDA-MB-468. Briefly: Tested for inhibition against mammary cancer MDA-MB 468 (breast carcinoma) cell lines. The class given is functional, cell-based. Conditions: Homo sapiens.
The next test has as its system HL-60. Briefly: Tested for inhibition against leukemic HL-60 (human cancer) cell lines. The class given is functional, cell-based.

For the sequence CISPLATIN, the ID50 with MDA-MB-468 turned out to be 3.3 µM; with HL-60, 2.3 µM.
